Results taken from article PMC6092189 (Nature structural & molecular biology, 2018).

Biological target: human β-cardiac myosin (Homo sapiens, UniProt P12883)
Assay: single-molecule harmonic force spectroscopy dose titration
Type: binding

Sequence of human β-cardiac myosin (P12883 1-808): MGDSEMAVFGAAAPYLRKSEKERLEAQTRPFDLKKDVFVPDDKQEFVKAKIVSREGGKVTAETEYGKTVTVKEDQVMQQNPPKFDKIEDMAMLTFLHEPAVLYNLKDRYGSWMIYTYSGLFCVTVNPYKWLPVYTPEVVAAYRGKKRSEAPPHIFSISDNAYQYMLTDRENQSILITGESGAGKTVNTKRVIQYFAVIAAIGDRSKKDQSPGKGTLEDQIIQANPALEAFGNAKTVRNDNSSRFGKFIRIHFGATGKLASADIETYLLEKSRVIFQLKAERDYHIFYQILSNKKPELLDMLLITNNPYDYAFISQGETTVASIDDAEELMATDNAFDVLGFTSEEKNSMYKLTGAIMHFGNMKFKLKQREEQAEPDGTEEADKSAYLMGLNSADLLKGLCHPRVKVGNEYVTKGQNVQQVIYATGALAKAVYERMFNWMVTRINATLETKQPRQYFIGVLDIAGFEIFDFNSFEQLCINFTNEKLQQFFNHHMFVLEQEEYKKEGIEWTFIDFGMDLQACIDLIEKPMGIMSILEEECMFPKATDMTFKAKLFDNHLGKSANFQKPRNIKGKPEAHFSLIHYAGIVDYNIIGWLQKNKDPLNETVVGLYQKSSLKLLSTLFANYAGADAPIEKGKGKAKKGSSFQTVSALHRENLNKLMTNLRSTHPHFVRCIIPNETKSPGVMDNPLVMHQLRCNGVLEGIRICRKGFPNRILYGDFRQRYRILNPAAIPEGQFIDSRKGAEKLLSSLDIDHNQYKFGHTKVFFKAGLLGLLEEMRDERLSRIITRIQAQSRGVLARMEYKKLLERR
Sequence of human β-cardiac myosin (P08590 2-195 partner): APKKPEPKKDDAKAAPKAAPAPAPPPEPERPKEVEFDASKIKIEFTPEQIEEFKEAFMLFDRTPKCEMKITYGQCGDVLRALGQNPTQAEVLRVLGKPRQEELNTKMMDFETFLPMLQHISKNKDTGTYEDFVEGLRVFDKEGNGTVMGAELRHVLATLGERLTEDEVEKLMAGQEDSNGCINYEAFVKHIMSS

A Kd of 310 ± 50 nM was found for `COC(=O)N1CCN(Cc2cccc(NC(=O)Nc3ccc(C)nc3)c2F)CC1` [OM, omecamtiv mecarbil] in this work.
